# Measurements reported in PubChem BioAssay (NCI).
# “And” between values parts separate entries of the source, which are not always exact repeats. Identical values can stand only once.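 96-well plates; 48 h exposure; 5 concentrations. Endpoints by linear interpolation between flanking doses. Not reached: highest tested concentration assigned. At the GI50, growth is halved. TGI marks complete inhibition of growth.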 Where a SMILES comes first, the peptide text is derived from it. [ ]: non-standard residue; d: D form. The star is where a group is joined. ξ: configuration not given here. NMeF = CN[C@@H](Cc1ccccc1)C(=O)O; NMeN = CN[C@@H](CC(N)=O)C(=O)O; NMeV = CN[C@H](C(=O)O)C(C)C; ξNMeV = CNC(C(=O)O)C(C)C; Boc = CC(C)(C)OC(=O)*; ξNMeA = CNC(C)C(=O)O; ξV = CC(C)C(N)C(=O)O
# Experiments:
# Assay in all cases: NCI anticancer screen, dose series, 48 h
# PC-3 prostate = system: PC-3 prostate
# SK-MEL-5 melanoma = system: SK-MEL-5 melanoma
# MDA-N = system: MDA-N
# MOLT-4 leukemia = system: MOLT-4 leukemia
# SK-MEL-2 melanoma = system: SK-MEL-2 melanoma
# HT29 colon = system: HT29 colon
# A498 renal = system: A498 renal
# HOP-92 NSCLC = system: HOP-92 NSCLC
# HCC-2998 colon = system: HCC-2998 colon
# CCRF-CEM leukemia = system: CCRF-CEM leukemia
# HCT-116 colon = system: HCT-116 colon
# NCI-H23 lung = system: NCI-H23 lung
# HCT-15 colon = system: HCT-15 colon
# NCI-H226 lung = system: NCI-H226 lung
# MDA-MB-435 = system: MDA-MB-435
# DU-145 prostate = system: DU-145 prostate
# KM12 colon = system: KM12 colon
# K-562 leukemia = system: K-562 leukemia
# NCI/ADR-RES ovarian = system: NCI/ADR-RES ovarian
# SW-620 colon = system: SW-620 colon
# SF-295 CNS = system: SF-295 CNS
# SN12C renal = system: SN12C renal
# OVCAR-3 ovarian = system: OVCAR-3 ovarian
# RPMI-8226 leukemia = system: RPMI-8226 leukemia
# XF 498 CNS = system: XF 498 CNS
# IGROV1 ovarian = system: IGROV1 ovarian
# OVCAR-4 ovarian = system: OVCAR-4 ovarian
# UO-31 renal = system: UO-31 renal
# TK-10 renal = system: TK-10 renal
# A549 NSCLC = system: A549 NSCLC
# NCI-H522 lung = system: NCI-H522 lung
# OVCAR-5 ovarian = system: OVCAR-5 ovarian
structure (smiles),measurement,setting,value
COC(=O)C(C)N(C)C(=O)[C@H](CC(N)=O)N(C)C(=O)[C@@H]1CCCN1C(=O)[C@H](C(C)C)N(C)C(=O)C(C(C)C)N(C)C(=O)[C@H](Cc1ccccc1)N(C)C(=O)C(NC(=O)OC(C)(C)C)C(C)C (stereo partly drawn) (Boc-[ξV][NMeF][ξNMeV][NMeV]P[NMeN][ξNMeA]-OMe),TGI,PC-3 prostate,50 µM
same,GI50,SK-MEL-5 melanoma,15.2 µM
same,TGI,SK-MEL-5 melanoma,50 µM and 28.5 µM
same,TGI,MDA-N,50 µM
same,GI50,MOLT-4 leukemia,11.1 µM
same,TGI,MOLT-4 leukemia,21.5 µM and 33.6 µM
same,TGI,SK-MEL-2 melanoma,20.1 µM and 22.9 µM
same,GI50,HT29 colon,23.4 µM
same,TGI,HT29 colon,50 µM and 57.7 µM
same,GI50,A498 renal,21.9 µM
same,TGI,A498 renal,50 µM and 67 µM
same,GI50,HOP-92 NSCLC,14.6 µM
same,TGI,HOP-92 NSCLC,50 µM and 27.8 µM
same,GI50,HCC-2998 colon,16.7 µM
same,TGI,HCC-2998 colon,50 µM and 31.1 µM
same,GI50,CCRF-CEM leukemia,10.8 µM
same,TGI,CCRF-CEM leukemia,50 µM and 33.1 µM
same,TGI,HCT-116 colon,50 µM and 31.1 µM
same,GI50,NCI-H23 lung,20.4 µM
same,TGI,NCI-H23 lung,50 µM and 40.4 µM
same,GI50,HCT-15 colon,29.8 µM
same,TGI,HCT-15 colon,50 µM and > 100 µM
same,GI50,NCI-H226 lung,20.8 µM
same,TGI,NCI-H226 lung,40.2 µM and 36.6 µM
same,TGI,MDA-MB-435,50 µM
same,TGI,DU-145 prostate,50 µM
same,GI50,KM12 colon,18.8 µM
same,TGI,KM12 colon,22.8 µM and 37.3 µM
same,GI50,K-562 leukemia,21 µM
same,TGI,K-562 leukemia,50 µM and 57.2 µM
same,TGI,NCI/ADR-RES ovarian,> 50 µM
same,GI50,SW-620 colon,13 µM
same,TGI,SW-620 colon,50 µM and 25.7 µM
same,GI50,SF-295 CNS,32.8 µM
same,TGI,SF-295 CNS,26.3 µM and > 100 µM
same,GI50,SN12C renal,17.4 µM
same,TGI,SN12C renal,50 µM and 33.5 µM
same,GI50,OVCAR-3 ovarian,17.1 µM
same,TGI,OVCAR-3 ovarian,50 µM and 31.2 µM
same,TGI,RPMI-8226 leukemia,41.9 µM
same,TGI,XF 498 CNS,28.9 µM
same,GI50,IGROV1 ovarian,16.2 µM
same,TGI,IGROV1 ovarian,50 µM and 29.8 µM
same,GI50,OVCAR-4 ovarian,31.1 µM
same,TGI,OVCAR-4 ovarian,> 50 µM and 87.5 µM
same,GI50,UO-31 renal,17.3 µM
same,TGI,UO-31 renal,50 µM and 31.1 µM
same,GI50,TK-10 renal,18.4 µM
same,TGI,TK-10 renal,50 µM and 51.8 µM
same,GI50,A549 NSCLC,> 100 µM
same,TGI,A549 NSCLC,> 100 µM
same,TGI,NCI-H522 lung,50 µM and 29.8 µM
same,GI50,OVCAR-5 ovarian,97.2 µM
